Measurements reported in patent publication US20090023753A1, “1,3-Thiazole-5-Carboxamides Useful as Cancer Chemotherapeutic Agents” (Bayer HealthCare AG, priority 2005, published 2009).

What was measured:
[1] = molecular target: T1, Flk-1 (murine VEGFR-2) kinase domain (Mus musculus, UniProt P35918); assay: Flk-1 (murine VEGFR-2) Biochemical Assay (TR-FRET); details: 10 μM ATP, 7 nM Flk-1 (kinase domain)
T1 construct: 7 nM Flk-1 (kinase domain)

[2] = tested on: P-AKT/PKB in H209 small cell lung carcinoma cells; assay: P-AKT/PKB Cytoblot Assay with H209 cells (SCF-stimulated); assay type: cell-based; details: Homo sapiens, NCI-H209, 1 hour compound incubation, SCF 25 ng/mL for 5 minutes, p-(S473) AKT
Excerpt: The utility of the compounds of the present invention can be illustrated, for example, by their activity in the P-AKT/PKB Cytoblot Assay described below. The involvement of the P-AKT/PKB[PI3K/AKt] pathway as a target for cancer chemotherapy has been recognized in the art. For example, see F. Chang et al, Involvement of PI3K/Akt pathway in cell cycle progression, apoptosis, and neoplastic transformation: a target for cancer chemotherapy, Leukemia, 2003, 17: p. 590-603; K. A. West et al, Activation of the PI3K/Akt pathway and chemotherapeutic resistance, Drug Resistance Updates, 2002, 5: p. 234-248; and P. Sen et al, Involvement of the Akt/PKB signaling pathway with disease processes, Molecular and Cellular Biochemistry, 2003, 253: p. 241-246.
P-AKT/PKB Cytoblot Assay Protocol with H209 Cells
H209 small cell lung carcinoma cells in log phase were plated at 50,000 cells/well in 96-well poly-lysine coated, clear bottom/black-sided plates (Becton-Dickinson, USA Cat # 354640) in 100 Ill RPMI medium containing 0.1% (w/v) BSA, and incubated overnight at 37° C. in 5% CO2 incubator. The following day, compounds (10 mM stock solutions in DMSO) were added to the plates to generate final concentrations of 0.0, 0.01, 0.03, 0.1, 0.3, 1.0, 3.0 and 10 μM for IC50 determinations and incubated for 1 hour at 37° C. Cells were then left untreated or stimulated with Stem Cell Factor (SCF: Biosource Cat # PHC2116) at a final concentration of 25 ng/mL for 5 minutes at 37° C. in 5% CO2 incubator. The media was then removed using a vacuum manifold and the cells were washed once with Tris Buffered Saline (TBS). Cells were then fixed by adding 200 μl of cold 3.7% (v/v) formaldehyde in TBS to each well for 15 minutes at 4° C. After removal of the formaldehyde, the cells were treated with the addition of 50 μl of methanol (at −20° C.) to each well for 5 minutes. After removal of the methanol, 200 μl of 1% (w/v) BSA in TBS was added to each well to block non-specific antibody binding sites and the plate was incubated at room temperature for 30 minutes.
After removal of the blocking buffer, 50 μl of p-(S473) AKT rabbit polyclonal antibody (Cell Signaling, USA Cat # 9277S) was added at a dilution of 1:250 in 0.1% (w/v) BSA in TBS, and the plate was incubated at room temperature for 1 hour. Plates were then washed 3 times with cold TBS containing 0.05% (v/v) Tween 20 (TBS-T) and 100 μl of Horseradish peroxidase (HRP)-conjugated goat-anti-rabbit antibody (Amersham, USA Cat # NA934V) at a dilution of 1:250 in TBS-T was added and the plate was incubated at room temperature for 1 h. After washing with ice-cold TBS-T four times, 100 μl of Enhanced Chemiluminescence (ECL) reagent (Amersham, USA Cat# RPN2209) was added to each well and mixed on a mini-orbital shaker for 1 min. The plate was then read on a Perkin Elmer Victor 5 Multilabel Counter (#1420-0421).

[3] = tested on: phospho-ERK in MDA-MB-231 cells; assay: Phospho-ERK Cytoblot Assay with MDA-MB 231 cells; assay type: cell-based; details: Homo sapiens, 1 hour compound incubation, phospho-p44/42 MAP kinase (Thr202/Tyr204)
Excerpt: The utility of the compounds of the present invention can also be illustrated, for example, by their activity in the phosph-ERK Assay described below. Growth-factor induction of the RAS/MEK/ERK signaling pathway leads to the induction of phosphorylation of a number of proteins including phospho-ERK (See C. J. Marshall, MAP kinase kinase kinase, MAP kinase kinase and MAP kinase, Current Opinions in Genetic Development, 1994, 4: p. 82-89). The importance of this pathway in cancer biology has been recognized in the art. Activation of the RAS signaling pathway is an important mechanism by which cancer develops (R. Herrera, et al, Unraveling the complexities of the Raf/MAP kinase pathway for pharmacological intervention, Trends Mol. Med., 2002, 8: p. S27-31). Mutational activation of RAS or downstream effectors as well as growth factor induction of this pathway leads to increased tumor cell proliferation and survival (A. A. Adjei, Blocking oncogenic RAS signaling for cancer therapy, J. Natl. Cancer Inst., 2001, 93(14): p. 1062-1074; J Schlessinger, Cell signaling by receptor tyrosine kinases, Cell, 2000, 103: p. 211-225). Phospho-ERK Cytoblot Assay Protocol with MDA-MB 231 Cells MDA-MB-231 cells in log phase were plated at 25,000 cells/well in 96-well opaque plates (Falcon, USA Cat # 353296) in 100 μL RPMI medium containing 10% (w/v) FBS, and incubated overnight at 37° C. in 5% CO2 incubator. The following day, the growth medium was removed from the plate by aspiration and replaced with RPMI medium containing 0.1% BSA and example compounds diluted to generate final concentrations of 0.0, 0.001, 0.003, 0.01, 0.03, 0.1, 0.3, 1 and 3 μM. Cells were incubated with compound for 1 hour at 37° C. in a 5% CO2 incubator. The media was then removed from the plate by aspiration and the cells were washed once with 180 μL/well cold Tris Buffered Saline (TBS). After removal of the wash buffer, the cells were fixed by adding 180 μL of cold 3.7% (v/v) formaldehyde in TBS to each well for 1 hour at 4° C. After removal of the formaldehyde, the cells were treated with the addition of 60 μL of −20° C. methanol to each well for 5 minutes at 4° C. The methanol was removed and the cells were washed with 180 μL/well of 5% (w/v) BSA in TBS. To block non-specific antibody binding sites, each well was treated with 180 μL/well 5% BSA (w/v) in TBS for thirty minutes at room temperature. After removal of the blocking buffer, 50 μL of an anti-phospho-p44/42 MAP kinase (Thr202/Tyr204) rabbit polyclonal antibody (Cell Signaling, USA Cat # 9101) was added to each well at a dilution of 1:1000 in 5% (w/v) BSA in TBS, and the plate was incubated at 4° C. overnight. Plates were then washed three times with 300 μL/well TBS at room temperature. The plates were then incubated with 50 μL of Horseradish peroxidase (HRP)-conjugated goat-anti-rabbit antibody (Amersham, USA Cat. # NA934V) at a dilution of 1:1000 in 5% BSA-TBS at room temperature for 1 hr. After washing the plate three times with 300 μL/well TBS, 60 μL of Enhanced Chemiluminescence (ECL) reagent (Amersham, USA Cat# RPN2209) was added to each well and incubated at room temperature for five minutes. The plate was then read on a Perkin Elmer Victor 5 Multilabel Counter (#1420-0421). […] The utility of the compounds of the present invention can also be illustrated, for example, by their activity in the flk-1 (murine VEGFR2) Assay described below. The VEGF-VEGFR2 signaling pathway has been extensively characterized as an important regulator of angiogenesis and tumor angiogeneisis (See G. Yancopoulos et al, Vascular-specific growth factors and blood vessel formation, Nature, 2000, 407: p. 242-248; D. Shweiki et al, Induction of vascular endothelial growth factor expression by hypoxia and by glucose deficiency in multi cell spheroids: Implications for tumor angiogenesis, Proc. Natl. Acad. Sci, 1995, 92: p. 768-772). Inhibition of tumor cell growth by blocking this pathway has been well documented in the art. […]

T1 sequence (P35918 832-1160 limits assumed): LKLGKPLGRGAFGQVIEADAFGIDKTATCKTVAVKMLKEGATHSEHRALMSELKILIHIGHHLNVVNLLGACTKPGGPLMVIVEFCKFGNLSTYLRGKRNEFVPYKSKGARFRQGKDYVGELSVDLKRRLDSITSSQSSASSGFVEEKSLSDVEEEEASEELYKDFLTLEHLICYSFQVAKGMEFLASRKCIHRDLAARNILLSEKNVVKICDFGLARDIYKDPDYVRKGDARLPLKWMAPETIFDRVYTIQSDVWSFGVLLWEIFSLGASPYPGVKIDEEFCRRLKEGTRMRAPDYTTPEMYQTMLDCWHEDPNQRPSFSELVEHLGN

Structure (SMILES) | IC50 [1] [nM] | IC50 [2] [nM] | IC50 [3] [nM]
CNC(=O)c1cc(CNc2ncsc2C(=O)Nc2ccc3c(c2)OC(F)(F)O3)ccn1 [Example 1, 4-{[(5-{[(2,2-difluoro-1,3-benzodioxol-5-yl)amino]carbonyl}-1,3-thiazol-4-yl)amino]methyl}-N-methylpyridine-2-carboxamide] | < 500 | < 500 | < 3000
CNC(=O)c1cc(CNc2ncsc2C(=O)Nc2ccc3c(c2)OC(F)(F)C(F)(F)O3)ccn1 [Example 2, N-methyl-4-{[(5-{[(2,2,3,3-tetrafluoro-2,3-dihydro-1,4-benzodioxin-6-yl)amino]carbonyl}-1,3-thiazol-4-yl)amino]methyl}pyridine-2-carboxamide] | < 500 | < 500 | < 3000
COCC(=O)Nc1cc(CNc2ncsc2C(=O)Nc2ccc3c(c2)OC(F)(F)O3)ccn1 [Example 7, N-(2,2-difluoro-1,3-benzodioxol-5-yl)-4-[([2-[(methoxyacetyl)amino]pyridin-4-yl]methyl)amino]-1,3-thiazole-5-carboxamide] | < 500 | < 500 | < 3000
COCC(=O)Nc1cc(CNc2ncsc2C(=O)Nc2ccc3c(c2)OC(F)(F)C(F)(F)O3)ccn1 [Example 8, 4-[({2-[(methoxyacetyl)amino]pyridin-4-yl}methyl)amino]-N-(2,2,3,3-tetrafluoro-2,3-dihydro-1,4-benzodioxin-6-yl)-1,3-thiazole-5-carboxamide] | < 500 | < 500 | < 3000
COCCOCC(=O)Nc1cc(CNc2ncsc2C(=O)Nc2ccc3c(c2)OC(F)(F)C(F)(F)O3)ccn1 [Example 9, 4-{[(2-{[(2-methoxyethoxy)acetyl]amino}pyridin-4-yl)methyl]amino}-N-(2,2,3,3-tetrafluoro-2,3-dihydro-1,4-benzodioxin-6-yl)-1,3-thiazole-5-carboxamide] | < 500 | < 500 | < 3000
CC(=O)Nc1cc(CNc2ncsc2C(=O)Nc2ccc3c(c2)OC(F)(F)O3)ccn1 [Example 10, 4-([{2-(acetylamino)pyridin-4-yl]methyl}amino)-N-(2,2-difluoro-1,3-benzodioxol-5-yl)-1,3-thiazole-5-carboxamide] | < 500 | < 500 | < 3000

Further lines, results first:

IC50 [1] [nM] | IC50 [2] [nM] | IC50 [3] [nM] | Structure (SMILES)
< 500 | < 500 | < 3000 | CC(=O)Nc1cc(CNc2ncsc2C(=O)Nc2ccc3c(c2)OC(F)(F)C(F)(F)O3)ccn1 [Example 11, 4-({[2-(acetylamino)pyridin-4-yl]methyl}amino)-N-(2,2,3,3-tetrafluoro-2,3-dihydro-1,4-benzodioxin-6-yl)-1,3-thiazole-5-carboxamide]
< 500 | < 500 | < 3000 | CC(=O)OCC(=O)Nc1cc(CNc2ncsc2C(=O)Nc2ccc3c(c2)OC(F)(F)O3)ccn1 [Example 13, 2-[(4-{[(5-{[(2,2-difluoro-1,3-benzodioxol-5-yl)amino]carbonyl}-1,3-thiazol-4-yl)amino]methyl}pyridin-2-yl)amino]-2-oxoethyl acetate]
< 500 | < 500 | < 3000 | CC(=O)OCC(=O)Nc1cc(CNc2ncsc2C(=O)Nc2ccc3c(c2)OC(F)(F)C(F)(F)O3)ccn1 [Example 14, 2-oxo-2-[(4-{[(5-{[(2,2,3,3-tetrafluoro-2,3-dihydro-1,4-benzodioxin-6-yl)amino]carbonyl}-1,3-thiazol-4-yl)amino]methyl}pyridin-2-yl)amino]ethyl acetate]
< 500 | < 500 | < 3000 | CCNC(=O)Nc1cc(CNc2ncsc2C(=O)Nc2ccc3c(c2)OC(F)(F)O3)ccn1 [Example 17, N-(2,2-difluoro-1,3-benzodioxol-5-yl)-4-{[(2-{[(ethylamino)carbonyl]amino}pyridin-4-yl)methyl]amino}-1,3-thiazole-5-carboxamide]
< 500 | < 500 | < 3000 | CNC(=O)Nc1cc(CNc2ncsc2C(=O)Nc2ccc3c(c2)OC(F)(F)O3)ccn1 [Example 18, N-(2,2-difluoro-1,3-benzodioxol-5-yl)-4-{[(2-{[(methylamino)carbonyl]amino}pyridin-4-yl)methyl]amino}-1,3-thiazole-5-carboxamide]
< 500 | < 500 | < 3000 | CNC(=O)Nc1cc(CNc2ncsc2C(=O)Nc2ccc3c(c2)OC(F)(F)C(F)(F)O3)ccn1 [Example 20, 4-{[(2-{[(methylamino)carbonyl]amino}pyridin-4-yl)methyl]amino}-N-(2,2,3,3-tetrafluoro-2,3-dihydro-1,4-benzodioxin-6-yl)-1,3-thiazole-5-carboxamide]
